For 10 compounds, IC50 results are on record in PMC6052120, “Bioactive Phenolics of the Genus Artemisia (Asteraceae): HPLC-DAD-ESI-TQ-MS/MS Profile of the Siberian Species and Their Inhibitory Potential Against α-Amylase and α-Glucosidase” (Frontiers in Pharmacology, 2018).

Assay [1] has as its target T1, α-Glucosidase from Saccharomyces cerevisiae (Saccharomyces cerevisiae, UniProt P53341).
T1 construct: purchased Sigma-Aldrich (St. Louis, MO, USA) G5003
In words: α-glucosidase inhibition assay, spectrophotometric method. The assay is classed as biochemical. The note with it: pure caffeoylquinic acids (CQA); acarbose reference; read-out: Inhibitory activity against enzyme as IC50 α-Glucosidase. As to the method:
The α-glucosidase inhibition assay was performed using spectrophotometric method (Olennikov et al., [2017b]). α-Glucosidase from Saccharomyces cerevisiae was dissolved in phosphate buffer (pH 6.8) containing bovine serum albumin (2 mg/mL) up to 0.5 U/mL concentration. Solution (10 μL) of sample in DMSO–phosphate buffer, pH 6.8 (1:9) at varying concentrations (10, 100, 250, 500, and 1,000 μg/mL) was premixed with 490 μL of phosphate buffer (pH 6.8) and 250 μL 5 mM p-nitrophenyl α-D-glucopyranoside. After preincubating at for 5 min, 250 μL α-glucosidase (0.5 U/mL) was added and incubated at for 15 min. The reaction was terminated by the addition of 2,000 μL Na2CO3 (200 mM). Absorbance was measured at 400 nm. […] The ability to inhibit α-glucosidase was calculated using the following equation: […]
(§1) Values are expressed as mean obtained from five independent experiments.

In assay [2] the target is T2, α-amylase from Aspergillus oryzae (Aspergillus oryzae, UniProt P0C1B3).
T2 construct: purchased Sigma-Aldrich (St. Louis, MO, USA) 10065
The assay is classed as biochemical. To be noted: pure caffeoylquinic acids (CQA); acarbose reference; read-out: Inhibitory activity against enzyme as IC50 α-Amylase. As for the experimental part:
α-Amylase inhibitory activity was assayed according to a previously published spectrophotometric protocol (Olennikov and Kashchenko, [2014]). Sample solution in DMSO (10 μL) at varying concentrations (10, 100, 250, 500, and 1,000 μg/mL), 30 μL of phosphate buffer (pH 5.0) and 10 μL of α-amylase from Aspergillus oryzae (3 U/mL) were incubated for 20 min at . Then 10 μL of 2% starch solution, 40 μL of phosphate buffer (pH 5.0) and 100 μL of the reagent were added and incubated for 30 min at . The reagent was a solution of K2HPO4 (0.8 mM), KH2PO4 (0.4 mM), phenol (220 mM), 4-aminoantipyrine (1.5 μM), glucose oxidase from Aspergillus oryzae (3 U/mL), and peroxidase from horseradish (0.3 U/mL) in deionized water. Absorbance was measured at 510 nm. […] The ability to inhibit α-amylase was calculated using the following equation: […]
as §1

T1 sequence (P53341 whole entry): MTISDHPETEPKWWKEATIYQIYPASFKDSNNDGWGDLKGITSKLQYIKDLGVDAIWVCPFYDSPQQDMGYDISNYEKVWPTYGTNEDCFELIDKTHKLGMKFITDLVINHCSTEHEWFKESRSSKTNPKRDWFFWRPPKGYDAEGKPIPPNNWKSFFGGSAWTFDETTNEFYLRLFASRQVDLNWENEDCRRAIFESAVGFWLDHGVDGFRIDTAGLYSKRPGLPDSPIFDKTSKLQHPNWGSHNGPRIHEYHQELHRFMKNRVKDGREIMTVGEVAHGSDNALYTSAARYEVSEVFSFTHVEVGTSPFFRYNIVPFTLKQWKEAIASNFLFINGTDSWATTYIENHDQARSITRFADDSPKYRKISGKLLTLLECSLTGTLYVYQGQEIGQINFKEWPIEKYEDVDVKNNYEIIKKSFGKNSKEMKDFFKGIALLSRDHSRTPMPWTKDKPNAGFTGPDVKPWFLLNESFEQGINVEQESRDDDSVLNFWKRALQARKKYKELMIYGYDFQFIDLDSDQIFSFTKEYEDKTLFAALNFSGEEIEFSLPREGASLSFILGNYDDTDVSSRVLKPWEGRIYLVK

By IC50 is commonly meant the concentration at which inhibition is half-maximal. Take `O=C(/C=C/c1ccc(O)c(O)c1)OC1CC(O)(C(=O)O)CC(OC(=O)/C=C/c2ccc(O)c(O)c2)C1O` (stereo not drawn) [3,5-Di-O-CQA, 3,5-Di-O-caffeoylquinic acid]: the 50% inhibitory concentration (IC50) is 184 ± 5.34 µM in assay [1] and 51.3 ± 1.64 µM in assay [2]. The like results for `O=C(/C=C/c1ccc(O)c(O)c1)OC1(C(=O)O)C[C@@H](O)C(O)[C@H](O)C1` (stereo partly drawn) [Compound 1-O-CQA] were, in that order, 1240 ± 42.1 µM and 172 ± 5.34 µM. On to `O=C(/C=C/c1ccc(O)c(O)c1)OC1[C@H](OC(=O)/C=C/c2ccc(O)c(O)c2)CC(O)(C(=O)O)C[C@H]1OC(=O)/C=C/c1ccc(O)c(O)c1` (stereo partly drawn) [3,4,5-Tri-O-CQA], for which the half-maximal inhibitory concentration (IC50) in assay [1] worked out at 61.1 ± 1.77 µM; in assay [2], 40.6 ± 1.05 µM. For `O=C(/C=C/c1ccc(O)c(O)c1)O[C@@H]1[C@H](O)C[C@@](O)(C(=O)O)C[C@H]1OC(=O)/C=C/c1ccc(O)c(O)c1` [4,5-Di-O-CQA, 4,5-Di-O-caffeoylquinic acid] the same measures were 62.1 ± 1.49 µM and 42.3 ± 1.18 µM. Consider `O=C(C=Cc1ccc(O)c(O)c1)OC1CC(OC(=O)C=Cc2ccc(O)c(O)c2)(C(=O)O)CC(O)C1O` (stereo not drawn) [1,5-Di-O-CQA, 1,5-Di-O-caffeoylquinic acid], for which the IC50 in assay [1] was found to be 754 ± 23.4 µM; in assay [2] it was 77.4 ± 2.24 µM.

In the case of `O=C(/C=C/c1ccc(O)c(O)c1)OC1CC(OC(=O)/C=C/c2ccc(O)c(O)c2)(C(=O)O)CC(O)C1O` (stereo not drawn) [1,3-Di-O-CQA, 1,3-Di-O-caffeoylquinic acid], the IC50 in assay [1] was 984 ± 28.5 µM; in assay [2], 101 ± 2.81 µM. Consider `O=C(/C=C/c1ccc(O)c(O)c1)O[C@H]1[C@H](O)C[C@](O)(C(=O)O)C[C@H]1O` [Compound 4-O-CQA, 4-O-Caffeoylquinic acid], for which the results for the 50% inhibitory concentration (IC50) in assay [1] and in assay [2] were 1030 ± 40 µM and 110 ± 3.39 µM, respectively.

With `O=C(/C=C/c1ccc(O)c(O)c1)OC1CC(O)(C(=O)O)CC(O)C1OC(=O)/C=C/c1ccc(O)c(O)c1` (stereo not drawn) [3,4-Di-O-CQA, 3,4-Di-O-caffeoylquinic acid], the IC50 in assay [1] amounted to 210 ± 6.5 µM; in assay [2], 67.2 ± 2.01 µM. Regarding `O=C(/C=C/c1ccc(O)c(O)c1)O[C@@H]1C[C@](O)(C(=O)O)C[C@@H](O)[C@H]1O` [Compound 5-O-CQA, 5-O-Caffeoylquinic acid], the concentration for half-maximal inhibition (IC50) in assay [2] amounted to 84.9 ± 2.37 µM. The same measure, in the same setting: the result for `O=C(/C=C/c1ccc(O)c(O)c1)O[C@@H]1C[C@](O)(C(=O)O)C[C@@H](O)[C@H]1O` [Compound 3-O-CQA, 3-O-caffeoylquinic acid] reads 170 ± 4.41 µM.
